Reference: PubChem BioAssay (NCI)
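Results reflect a 48-hour exposure of cells in 96-well plates to compound at five concentrations. Definition used: TGI = concentration required for complete inhibition of growth.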

Assays:
Experiment in all cases: inhibition of tumour cell growth, NCI panel, 48 h
[1] = tested on: NCI-H522 lung
[2] = tested on: SNB-75 CNS
[3] = tested on: RXF 393 renal
[4] = tested on: SK-OV-3 ovarian
[5] = tested on: K-562 leukemia
[6] = tested on: TK-10 renal
[7] = tested on: NCI-H460 lung
[8] = tested on: DU-145 prostate
[9] = tested on: SF-539 CNS
[10] = tested on: UACC-257 melanoma
[11] = tested on: IGROV1 ovarian
[12] = tested on: OVCAR-3 ovarian
[13] = tested on: SR leukemia
[14] = tested on: EKVX NSCLC
[15] = tested on: ACHN renal
[16] = tested on: CCRF-CEM leukemia
[17] = tested on: SF-268 CNS
[18] = tested on: MDA-N
[19] = tested on: RPMI-8226 leukemia
[20] = tested on: COLO 205 colon

Compound	TGI [1]	TGI [2]	TGI [3]	TGI [4]	TGI [5]	TGI [6]	TGI [7]	TGI [8]	TGI [9]	TGI [10]	TGI [11]	TGI [12]	TGI [13]	TGI [14]	TGI [15]	TGI [16]	TGI [17]	TGI [18]	TGI [19]	TGI [20]
Cc1cc2cc3ccccc3cc2c(=O)[nH]1	> 10 µM	> 10 µM	> 10 µM	> 10 µM	> 10 µM	> 10 µM	> 10 µM	> 10 µM	> 10 µM	> 10 µM	> 10 µM	> 10 µM	> 10 µM	> 10 µM	> 10 µM	> 10 µM	> 10 µM	> 10 µM		
Cc1ccc(S(=O)(=O)N/N=C2\CC(C)OC3=C2CCCCCC3)cc1 (configuration not stated)		52.4 µM	32.4 µM	62.8 µM	> 100 µM	37.2 µM	> 100 µM	37.6 µM	38.9 µM	36.6 µM	38.2 µM	36 µM	60.4 µM	30.4 µM	32.8 µM	> 100 µM	38.4 µM	> 100 µM	82.5 µM	37.1 µM
Cn1ccoc1=Nc1ccc(Cl)c(Cl)c1	> 10 µM	> 10 µM		> 10 µM	> 10 µM	> 10 µM	> 10 µM	> 10 µM	> 10 µM	> 10 µM	> 10 µM	> 10 µM	> 10 µM	> 10 µM	> 10 µM	> 10 µM	> 10 µM	> 10 µM	> 10 µM	> 10 µM
COCCOC1=C(Cl)C(=O)c2c(O)ccc(O)c2C1=O	1.67 µM	13.9 µM	1.7 µM	30.7 µM		3.24 µM	17.2 µM	13.2 µM	5.46 µM	4.85 µM	6.27 µM	3.08 µM	3.19 µM	11.5 µM	2.96 µM		13 µM	3.03 µM	1.75 µM	2.34 µM
C[N+](C)(C)CCOP(=O)([O-])OCCNC(=O)c1ccc2ccccc2c1	> 100 µM	> 100 µM	> 100 µM	> 100 µM	> 100 µM	> 100 µM		> 100 µM	> 100 µM	> 100 µM	> 100 µM	> 100 µM	> 100 µM	> 100 µM	> 100 µM	> 100 µM	> 100 µM	> 100 µM	> 100 µM	> 100 µM
CNN1C(=O)c2c(C)c(C)c(C#N)c(N)c2C1=O	> 100 µM	> 100 µM	> 100 µM		> 100 µM	> 100 µM	> 100 µM	> 100 µM	> 100 µM	> 100 µM	> 100 µM	> 100 µM	> 100 µM	> 100 µM	> 100 µM	> 100 µM	> 100 µM	> 100 µM	> 100 µM	> 100 µM
O=C(NNC(=O)c1ccccc1O)c1ccco1	> 100 µM	> 100 µM	> 100 µM	> 100 µM	> 100 µM	> 100 µM	> 100 µM	> 100 µM	> 100 µM	> 100 µM	> 100 µM	> 100 µM	> 100 µM	> 100 µM		> 100 µM	> 100 µM	> 100 µM	> 100 µM	> 100 µM
COC(=O)N/N=C(\c1ccccc1)c1ccc(OC)cc1	> 100 µM	> 100 µM	> 100 µM	> 100 µM	> 100 µM	> 100 µM	> 100 µM	> 100 µM	> 100 µM	> 100 µM	> 100 µM	> 100 µM	> 100 µM	> 100 µM		> 100 µM	> 100 µM	> 100 µM	> 100 µM	> 100 µM
COc1ccc2nc3c([N+](=O)[O-])ccc(NCCN(C)C)c3c(NCCN(C)C)c2c1		3.51 µM	2.33 µM	> 10 µM	3.42 µM	> 10 µM		> 10 µM		> 10 µM	5.13 µM		0.634 µM	4.59 µM		1.78 µM	> 10 µM	3.13 µM	1.97 µM	> 10 µM
COc1ccc2c(c1)CCc1c-2n(CCN2CCOCC2)c2ccc(OC)cc12	> 100 µM	> 100 µM	> 100 µM	> 100 µM	54 µM	> 100 µM	> 100 µM	> 100 µM	> 100 µM	> 100 µM	> 100 µM	> 100 µM	34.8 µM		> 100 µM	53.1 µM	> 100 µM	> 100 µM	> 100 µM	> 100 µM
CCOC(=O)CC(=O)CSc1c(-c2ccccc2)c(=O)n(-c2ccccc2)c(=S)n1-c1ccccc1	> 100 µM	> 100 µM	> 100 µM	> 100 µM	> 100 µM	> 100 µM	> 100 µM	> 100 µM	> 100 µM	> 100 µM	> 100 µM	> 100 µM	> 100 µM	> 100 µM	> 100 µM	> 100 µM	> 100 µM	> 100 µM		> 100 µM
CC(=O)O[C@H]1C(=O)[C@@]2(C)C(C(OC(=O)c3ccccc3)[C@]3(O)CC(OC(=O)C(O)C(NC(=O)c4ccccc4)c4cccc(Cl)c4)C(C)=C1C3(C)C)[C@]1(OC(C)=O)CO[C@@H]1C[C@@H]2O (some centres not stated)	> 10 µM	> 10 µM		> 10 µM	> 10 µM	> 10 µM	> 10 µM	9.16 µM	9.73 µM	> 10 µM	> 10 µM	> 10 µM	6.72 µM	> 10 µM	> 10 µM	> 10 µM	> 10 µM	3.46 µM	9.49 µM	> 10 µM
